How the values were obtained:
[1] = tested on: Escherichia coli ATCC 25922; experiment: Colistin broth microdilution MIC with potentiator compounds (Example 1); format: cell-based; conditions: E. coli ATCC 25922; colistin without potentiator
[2] = tested on: Escherichia coli ATCC 9637; experiment: as above; format: cell-based; conditions: E. coli ATCC 9637; colistin without potentiator
[3] = tested on: Salmonella enterica subsp. enterica ATCC 14028; experiment: as above; format: cell-based; conditions: S. enterica ATCC 14028; colistin without potentiator
[4] = tested on: Acinetobacter baumannii ATCC 15308; experiment: as above; format: cell-based; conditions: A. baumannii ATCC 15308; colistin without potentiator
[5] = tested on: Pseudomonas aeruginosa ATCC 27853; experiment: as above; format: cell-based; conditions: P. aeruginosa ATCC 27853; colistin without potentiator
[6] = tested on: Pseudomonas aeruginosa PAO1; experiment: as above; format: cell-based; conditions: P. aeruginosa PAO1; colistin without potentiator
[7] = tested on: Stenotrophomonas maltophilia ATCC 13637; experiment: as above; format: cell-based; conditions: S. maltophilia ATCC 13637; colistin without potentiator
[8] = tested on: Enterobacter aerogenes ATCC 13048; experiment: as above; format: cell-based; conditions: E. aerogenes ATCC 13048; colistin without potentiator
[9] = tested on: S. maltophilia 197; experiment: Colistin broth microdilution MIC with potentiator compounds, resistant clinical isolates (Example 3); format: cell-based, Stenotrophomonas maltophilia; conditions: colistin without potentiator
Description: (§1) The potentiator effect of the compound of the invention and other compounds disclosed herein was tested using colistin sulfate as antibiotic and in combination with the enhancer compounds in front of resistant clinical isolates.
(§2) Tests were performed to determine the potentiator effect of the compound of the invention and other compounds disclosed herein with multidrug-resistant S. maltophilia and A. baumannii clinical strains as shown in Table 5: TABLE 5
(§3) For this experiment the potentiator compound was added to a colistin broth microdilution assay at a final concentration of 0.1mM. MICs were determined as described in the Example 1.
(§4) Colistin minimal inhibitory concentration (MIC), expressed in µg/mL, and the fold increase in bacterial susceptibility to colistin when combined with the potentiator compound (expressed as MIC in the presence of 1.0% DMSO / MIC in the presence of 0.1 mM of each potentiator compound and 1.0% DMSO) are shown in Table 6: […]

[10] = tested on: S. maltophilia 257; experiment: as above; format: cell-based, Stenotrophomonas maltophilia; conditions: colistin without potentiator
Description: as §1, §2, §3, §4

[11] = tested on: S. maltophilia 53149; experiment: as above; format: cell-based, Stenotrophomonas maltophilia; conditions: colistin without potentiator
Description: as §1, §2, §3, §4

[12] = tested on: S. maltophilia D457; experiment: as above; format: cell-based, Stenotrophomonas maltophilia; conditions: colistin without potentiator
Description: as §1, §2, §3, §4

[13] = tested on: S. maltophilia M30; experiment: as above; format: cell-based, Stenotrophomonas maltophilia; conditions: colistin without potentiator
Description: as §1, §2, §3, §4

[14] = tested on: A. baumannii 6799; experiment: as above; format: cell-based, Acinetobacter baumannii; conditions: colistin without potentiator
Description: as §1, §2, §3, §4

[15] = tested on: A. baumannii 6963; experiment: as above; format: cell-based, Acinetobacter baumannii; conditions: colistin without potentiator
Description: as §1, §2, §3, §4

[16] = tested on: S. maltophilia K279a; experiment: Colistin broth microdilution MIC with compound of formula I prepared in methanol or DMSO (Example 6); format: cell-based, Stenotrophomonas maltophilia; conditions: microdilution test with MHB, colistin without potentiator
Description: (§5) The potentiator effect of the compound of the invention in a new formulation was tested by using colistin sulphate as antibiotic in combination with the enhancer compound of formula I in front of resistant clinical isolates. […]
(§6) Tests were performed to determine the potentiator effect of the compound of the invention with two colistin resistant S. maltophilia strains as shown in Table 9. S. maltophilia K279a is a reference clinical strain. The origin of clinical strain OC323 together with K279a has been described previously (Huedo et al., Two Different rpf Clusters Distributed among a Population of Stenotrophomonas maltophilia Clinical Strains Display Differential Diffusible Signal Factor Production and Virulence Regulation, J. Bacteriol., 2014, 196, 2431-2442).
(§7) Selected compound of formula I was first dissolved in 100% of Methanol (HPLC Gradient Grade CHROMASOLV. Sigma, 34885-1L-R) to 10 mM. The compound was fairly soluble in methanol up to 10 mM and required vigorous vortex.
(§8) […] MICs were determined as described in the Example 1.
(§9) Strains colistin minimal inhibitory concentration (MIC), expressed in µg/mL, and the fold increase in bacterial susceptibility to colistin when combined with the potentiator compound previously dissolved in methanol ([…]) are shown in Table 9: TABLE 9

[17] = tested on: S. maltophilia OC323; experiment: as above; format: cell-based, Stenotrophomonas maltophilia; conditions: microdilution test with MHB, colistin without potentiator
Description: as §5, §6, §7, §8, §9

## colistin [reference compound]
[1]
  Colistin MIC: 1 µg/mL
[2]
  Colistin MIC: 0.5 µg/mL
[3]
  Colistin MIC: 2 µg/mL
[4]
  Colistin MIC: 0.5 µg/mL
[5]
  Colistin MIC: 0.5 µg/mL
[6]
  Colistin MIC: 1 µg/mL
[7]
  Colistin MIC: 8 µg/mL
[8]
  Colistin MIC: 1 µg/mL
[9]
  Colistin MIC: 32 µg/mL
[10]
  Colistin MIC: 64 µg/mL
[11]
  Colistin MIC: 32 µg/mL
[12]
  Colistin MIC: 32 µg/mL
[13]
  Colistin MIC: 32 µg/mL
[14]
  Colistin MIC: 0.125 µg/mL
[15]
  Colistin MIC: 0.125 µg/mL
[16]
  MIC to colistin: S. maltophilia K279a (16 µg/mL)
[17]
  MIC to colistin: S. maltophilia OC323 (32 µg/mL)

Reference: EP3294317B1, “ENHANCED ANTIBIOTIC COMPOSITION” (Universitat Autònoma de Barcelona, priority 2015, dated 2016)
